Target: T1, human JAK1 (a.a. 837-1142) catalytic domain (Homo sapiens, UniProt P23458)
T1 construct: human JAK1 (a.a. 837-1142); His tag (N); made in house; host or cells: insect cells (baculovirus)
Assay: In vitro JAK kinase assay (HTRF, phosphorylation of biotinylated peptide)
Assay type: biochemical
Conditions: measured at 1 mM ATP
Experimental: The compound of Formula I was tested for inhibitory activity of JAK targets according to the following in vitro assay described in Park et al., Analytical Biochemistry 1999, 269, 94-104. The catalytic domains of human JAK1 (a.a. 837-1142) and JAK2 (a.a. 828-1132) with an N-terminal His tag were expressed using baculovirus in insect cells and purified. The catalytic activity of JAK1 and JAK2 was assayed by measuring the phosphorylation of a biotinylated peptide. The phosphorylated peptide was detected by homogenous time resolved fluorescence (HTRF). IC50s of compounds were measured for each kinase in the 40 micro L reactions that contain the enzyme, ATP and 500 nM peptide in 50 mM Tris (pH 7.8) buffer with 100 mM NaCl, 5 mM DTT, and 0.1 mg/mL (0.01%) BSA. For the 1 mM IC50 measurements, ATP concentration in the reactions was 1 mM. Reactions were carried out at room temperature for 1 hr and then stopped with 20 μL 45 mM EDTA, 300 nM SA-APC, 6 nM Eu-Py20 in assay buffer (Perkin Elmer, Boston, Mass.). Binding to the Europium labeled antibody took place for 40 minutes and HTRF signal was measured on a Fusion plate reader (Perkin Elmer, Boston, Mass.).

T1 sequence (P23458 849-1154): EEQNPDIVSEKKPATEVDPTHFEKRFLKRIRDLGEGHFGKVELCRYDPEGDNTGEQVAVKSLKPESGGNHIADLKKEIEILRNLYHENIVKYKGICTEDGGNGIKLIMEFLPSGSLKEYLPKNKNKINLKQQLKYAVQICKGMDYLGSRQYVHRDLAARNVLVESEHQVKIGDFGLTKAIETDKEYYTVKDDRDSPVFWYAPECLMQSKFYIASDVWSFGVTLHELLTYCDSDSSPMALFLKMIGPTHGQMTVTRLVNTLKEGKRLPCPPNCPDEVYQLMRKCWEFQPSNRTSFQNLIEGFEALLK

IC50: < 5 nM
SMILES: N#CCC1(n2cc(-c3ncnc4[nH]ccc34)cn2)CN(C2CCN(C(=O)c3ccnc(C(F)(F)F)c3F)CC2)C1 [Formula I, {1-{1-[3-fluoro-2-(trifluoromethyl)isonicotinoyl]piperidin-4-yl}-3-[4-(7H-pyrrolo[2,3-d]pyrimidin-4-yl)-1H-pyrazol-1-yl]azetidin-3-yl}acetonitrile]

From US10899736B2, “Processes and intermediates for making a JAK inhibitor” (Incyte Corporation, priority 2018, dated 2021)
